Experiments:
[1] = system: Litomosoides carinii; experiment: filaricidal activity on cotton rats infected with Litomosoides carinii; format: in vivo, Litomosoides carinii (in cotton rats, Sigmodon hispidus); conditions: sc, 1008 h, s.c., L. carinii-infected cotton rats, treated 14 weeks after infection, dissected 42 days after treatment, Probit analysis, read-out: ED90 (dosage at which 90% of the worms removed from the pleural cavity are dead)
Protocol: (§1) The filaricidal activity of the compounds of formula I can be determined, for example, on cotton rats (Sigmodon hispidus) which have been infected with Litomosoides carinii. The infection with L. carinii is transmitted by the blood-sucking mite Bdellonyssus bacoti in which the development of the microfilaria in infectious larvae takes place. The cotton rats are infected by exposing them to bites of infected mites. After fourteen (14) weeks, the infected groups of 2-4 animals are treated subcutaneously with the compound to be tested. Forty two (42) days after treatment with the compound to be tested, the experimental animals are dissected, and the adult filaria are removed from the pleural cavity. Living and dead or encapsulated worms are separated from one another and weighed. The filaricidal activity is expressed as the percentage proportion of dead macrofilaria per treatment group. The ED90 is then determined by means of Probit analysis using the values from different dosage groups. The ED90 is that dosage at which 90% of the worms removed from the pleural cavity are dead. In the following Table, the results which were obtained in the previously described test with representative members of the class of compound defined by formula I are compiled. Moreover, the Table contains data concerning the acute toxicity of some of the compounds of formula I in mg per kg obtained after single oral administration to mice.

[2] = acute toxicity after single oral administration to mice; conditions: mouse, in vivo, p.o.
Protocol: as §1, with “Moreover, the Table contains data concerning the acute toxicity of some of the compounds of formula I in mg per kg obtained after single oral administration to mice.” left out

Row | Structure (SMILES) | ED90 [1] [mg/kg] | LD50 [2] [mg/kg]
1 | CN(C)C=Cc1n(N=Cc2ccc(N(C)C)cc2)cc[n+]1N=Cc1ccc(N(C)C)cc1.[Cl-] [Compound A, 1,3-bis[[p-(dimethylamino)benzylidene]amino]-2-[2-(dimethylamino)vinyl]imidazolium chloride] | 1 | 312 to 625
2 | CN(C)c1ccc(C=Nn2cc[n+](N=Cc3ccc(N(C)C)cc3)c2C=CN2CCCCC2)cc1.[Cl-] [Compound B, 1,3-bis[[p-(dimethylamino)benzylidene]amino]-2-(2-piperidinovinyl)imidazolium chloride] | 2 | 
3 | CN(C)c1ccc(C=Nn2cc[n+](N=Cc3ccc(N(C)C)cc3)c2C=CN2CCOCC2)cc1.[Cl-] [Compound C, 1,3-bis[[p-(dimethylamino)benzylidene]amino]-2-(2-morpholinovinyl)imidazolium chloride] | 0.55 | 
4 | CN(C)c1ccc(C=Nn2cc[n+](N=Cc3ccc(N(C)C)cc3)c2-c2ccccc2)cc1.[Cl-] [Compound D, 1,3-bis[[p-(dimethylamino)benzylidene]amino]-2-phenylimidazolium chloride] | < 1 | 1250 to 2500

Reference: patent publication US4814332A, “Antimicrobial 1,3-disubstituted/imidazolium salts” (Hoffman-La Roche Inc., priority 1986, dated 1989)
